Reference: ChEMBL document CHEMBL3232986, “Identification of a novel series of potent HCV NS5B Site I inhibitors” (Bioorg Med Chem Lett, 2014)

Experiments:
[1] = Inhibition of HCV genotype 1b wild type NS5B polymerase using biotinylated oligo dT12 primer as substrate after 4 hrs in presence of [3H]UTP; design: species or system Hepatitis C virus subtype 1b
Hepatitis C virus = test: Antiviral activity against HCV genotype 1a H77c infected in human HuH7 cells after 3 days by luciferase reporter gene assay; format: functional, cell-based, Hepacivirus hominis; conditions: Huh-7, 72 h
[2] = (§1) Plasma concentration in rat at 5 mg/kg, iv after 6 hrs; format: ADME, organism-based; design: dose 5 mg/kg, route intravenous; conditions: plasma
[3] = (§2) Plasma concentration in rat at 10 mg/kg, po after 6 hrs; format: ADME, organism-based; design: dose 10 mg/kg, route oral; conditions: plasma
[4] = (§3) Drug uptake in rat liver at 5 mg/kg, iv after 6 hrs; format: ADME, organism-based; design: dose 5 mg/kg, route intravenous; conditions: liver, read-out: Drug uptake
[5] = (§4) Drug uptake in rat liver 10 mg/kg, po after 6 hrs; format: ADME, organism-based; design: dose 10 mg/kg, route oral; conditions: liver, read-out: Drug uptake
[6] = Clearance in rat after 6 hrs; format: ADME, organism-based; conditions: in vivo
[7] = Cytotoxicity against human HuH7 cells after 4 hrs by CellTitre-Blue assay; format: cell-based, Huh-7
[8] = Ratio of EC50 for HCV genotype 1a H77c replicon cells to IC50 for HCV genotype 1b wild type NS5B polymerase
[9] = Permeability of the compound at pH 7.4 by PAMPA; format: physicochemical; conditions: read-out: permeability
[10] = Cytotoxicity against human HuH7 cells after 3 days by Alamar blue assay; format: cell-based, Huh-7
Plasma [11] = test: as §1; format: ADME, organism-based; design: dose 5 mg/kg, route intravenous; conditions: in vivo, 6 h, BLD = below limit of detection
Plasma [12] = test: as §2; format: ADME, organism-based; design: dose 10 mg/kg, route oral; conditions: in vivo, 6 h, BLD = below limit of detection
Liver [13] = test: as §3; format: ADME, organism-based; design: dose 5 mg/kg, route intravenous; conditions: in vivo, 6 h, BLD = below limit of detection
Liver [14] = test: as §4; format: ADME, organism-based; design: dose 10 mg/kg, route oral; conditions: in vivo, 6 h, BLD = below limit of detection
[15] = Permeability of the compound at pH 5.5 by PAMPA; format: physicochemical; conditions: read-out: permeability

Row | Compound | IC50 [1] [µM] | EC50 (Hepatitis C virus) [µM] | CC50 at 4 h [7] [µM] | further results
1 | CNC(=O)N1CC23CCC2(C1)CN(C(=O)[C@]12C[C@H]1c1cc(OC)ccc1-c1c(C4CCCCC4)c4ccc(C(=O)NS(=O)(=O)C(C)C)cc4n1C2)C3 (some centres undefined) | 0.002 | 0.02 | 72 | 
2 | COc1ccc2c(c1)[C@@H]1C[C@]1(C(=O)N1CC34CCC3(C1)CN(C1CC1)C4)Cn1c-2c(C2CCCCC2)c2ccc(C(=O)NS(=O)(=O)C(C)C)cc21 (some centres undefined) | 0.005 | 0.012 | 18 | 
3 | CNC(=O)N1CC23COCC2(C1)CN(C(=O)[C@]12C[C@H]1c1cc(OC)ccc1-c1c(C4CCCCC4)c4ccc(C(=O)NS(=O)(=O)C(C)C)cc4n1C2)C3 (some centres undefined) | 0.003 | 0.2 | > 100 | Ratio [8]: 66; Papp [9]: 18 nm/s
4 | CCOCCN1CC23COCC2(C1)CN(C(=O)[C@]12C[C@H]1c1cc(OC)ccc1-c1c(C4CCCCC4)c4ccc(C(=O)NS(=O)(=O)N(C)C)cc4n1C2)C3 (some centres undefined) |  | 0.003 | 16 | 
5 | COc1ccc2c(c1)[C@@H]1C[C@]1(C(=O)N1CC34COCC3(CN(C)C4)C1)Cn1c-2c(C2CCCCC2)c2ccc(C(=O)NS(=O)(=O)C(C)C)cc21 (some centres undefined) | 0.004 | 0.001 |  | concentration at 6 h [2]: 0.006 µM; concentration at 6 h [3]: 0.002 µM; concentration at 6 h [4]: 0.052 µM; concentration at 6 h [5]: 0.038 µM; clearance [6]: 1.62 L/h/kg; CC50 at 72 h [10]: 14 µM
6 | COc1ccc2c(c1)[C@@H]1C[C@]1(C(=O)N1CC34COCC3(C1)CN(S(=O)(=O)C(C)C)C4)Cn1c-2c(C2CCCCC2)c2ccc(C(=O)NS(=O)(=O)N(C)C)cc21 (some centres undefined) | 0.002 | 0.006 | 12 | 
7 | CCOCCN1CC23COCC2(C1)CN(C(=O)[C@]12C[C@H]1c1cc(OC)ccc1-c1c(C4CCCCC4)c4ccc(C(=O)NS(=O)(=O)C(C)C)cc4n1C2)C3 (some centres undefined) |  | 0.005 | 19 | concentration at 6 h [2]: 0.032 µM; concentration at 6 h [3]: 0.008 µM; concentration at 6 h [4]: 0.077 µM; concentration at 6 h [5]: 0.116 µM; clearance [6]: 4.86 L/h/kg
8 | COc1ccc2c(c1)[C@@H]1C[C@]1(C(=O)N1CC34CCC3(CN(CC(F)(F)F)C4)C1)Cn1c-2c(C2CCCCC2)c2ccc(C(=O)NS(=O)(=O)C(C)C)cc21 (some centres undefined) | 0.007 | 0.077 | 35 | 
9 | COc1ccc2c(c1)[C@@H]1C[C@]1(C(=O)N1CC34COCC3(CN(CC(F)(F)F)C4)C1)Cn1c-2c(C2CCCCC2)c2ccc(C(=O)NS(=O)(=O)C(C)C)cc21 (some centres undefined) | 0.004 | 0.016 | 8 | 
10 | CCN1CC23COCC2(C1)CN(C(=O)[C@]12C[C@H]1c1cc(OC)ccc1-c1c(C4CCCCC4)c4ccc(C(=O)NS(=O)(=O)C(C)C)cc4n1C2)C3 (some centres undefined) | 0.004 | 0.004 | 11 | concentration at 6 h [2]: 0.008 µM; concentration at 6 h [3]: 0.006 µM; concentration at 6 h [5]: 0.066 µM; clearance [6]: 2.94 L/h/kg
11 | COc1ccc2c(c1)[C@@H]1C[C@]1(C(=O)N1CC34CCC3(CN(C(=O)N3CCOCC3)C4)C1)Cn1c-2c(C2CCCCC2)c2ccc(C(=O)NS(=O)(=O)C(C)C)cc21 (some centres undefined) | 0.005 | 0.028 | 27 | 
12 | COc1ccc2c(c1)[C@@H]1C[C@]1(C(=O)N1CC34CNCC3(COC4)C1)Cn1c-2c(C2CCCCC2)c2ccc(C(=O)NS(=O)(=O)C(C)C)cc21 (some centres undefined) | 0.006 | 0.023 |  | 
13 | COc1ccc2c(c1)[C@@H]1C[C@]1(C(=O)N1CC34COCC3(C1)CN(S(=O)(=O)C(C)C)C4)Cn1c-2c(C2CCCCC2)c2ccc(C(=O)NS(=O)(=O)C(C)C)cc21 (some centres undefined) | 0.002 | 0.016 | 17 | Ratio [8]: 8
14 | COc1ccc2c(c1)[C@@H]1C[C@]1(C(=O)N1CC34CCC3(CN(C(=O)N3CCCC3)C4)C1)Cn1c-2c(C2CCCCC2)c2ccc(C(=O)NS(=O)(=O)C(C)C)cc21 (some centres undefined) | 0.004 | 0.027 | 14 | 
15 | COc1ccc2c(c1)[C@@H]1C[C@]1(C(=O)N1CC34CCC3(CN(CC(F)(F)F)C4)C1)Cn1c-2c(C2CCCCC2)c2ccc(C(=O)NS(=O)(=O)N(C)C)cc21 (some centres undefined) | 0.004 | 0.055 | 26 | 
16 | CNC(=O)N1CC23COCC2(C1)CN(C(=O)[C@]12C[C@H]1c1cc(OC)ccc1-c1c(C4CCCCC4)c4ccc(C(=O)NS(=O)(=O)N(C)C)cc4n1C2)C3 (some centres undefined) | 0.002 | 0.086 | 96 | Ratio [8]: 43; Papp [9]: 37 nm/s

Further compounds by falling EC50 (Hepatitis C virus), results first:

Row | IC50 [1] [µM] | EC50 (Hepatitis C virus) [µM] | Compound | CC50 at 4 h [7] [µM] | further results
17 |  | 0.462 | COC(=O)N1CC23COCC2(C1)CN(C(=O)[C@]12C[C@H]1c1cc(OC)ccc1-c1c(C4CCCCC4)c4ccc(C(=O)NS(=O)(=O)N(C)C)cc4n1C2)C3 (some centres undefined) | 7 | 
18 | 0.025 | 0.064 | COC(=O)N1CC23CCC2(C1)CN(C(=O)[C@]12C[C@H]1c1cc(OC)ccc1-c1c(C4CCCCC4)c4ccc(C(=O)NS(=O)(=O)C(C)C)cc4n1C2)C3 (some centres undefined) | 3 | 
19 | 0.023 | 0.046 | COC(=O)N1CC23COCC2(C1)CN(C(=O)[C@]12C[C@H]1c1cc(OC)ccc1-c1c(C4CCCCC4)c4ccc(C(=O)NS(=O)(=O)C(C)C)cc4n1C2)C3 (some centres undefined) | 5 | 
20 | 0.003 | 0.042 | COc1ccc2c(c1)[C@@H]1C[C@]1(C(=O)N1CC34COCC3(CN(C(C)=O)C4)C1)Cn1c-2c(C2CCCCC2)c2ccc(C(=O)NS(=O)(=O)C(C)C)cc21 (some centres undefined) | > 100 | Ratio [8]: 14
21 | 0.005 | 0.041 | COc1ccc2c(c1)[C@@H]1C[C@]1(C(=O)N1CC34CNCC3(CN(C)C4)C1)Cn1c-2c(C2CCCCC2)c2ccc(C(=O)NS(=O)(=O)C(C)C)cc21 (some centres undefined) |  | 
22 | 0.004 | 0.037 | COc1ccc2c(c1)[C@@H]1C[C@]1(C(=O)N1CC34CCC3(CN(C(=O)N(C(C)C)C(C)C)C4)C1)Cn1c-2c(C2CCCCC2)c2ccc(C(=O)NS(=O)(=O)C(C)C)cc21 (some centres undefined) | 10 | 
23 | 0.002 | 0.031 | COc1ccc2c(c1)[C@@H]1C[C@]1(C(=O)N1CC34CCC3(CN(C(C)=O)C4)C1)Cn1c-2c(C2CCCCC2)c2ccc(C(=O)NS(=O)(=O)C(C)C)cc21 (some centres undefined) | 37 | 
24 | 0.007 | 0.023 | COc1ccc2c(c1)[C@@H]1C[C@]1(C(=O)N1CC34CCC3(CN(C(=O)N(C(C)C)C(C)C)C4)C1)Cn1c-2c(C2CCCCC2)c2ccc(C(=O)NS(=O)(=O)N(C)C)cc21 (some centres undefined) | 7 | 
25 | 0.002 | 0.019 | COc1ccc2c(c1)[C@@H]1C[C@]1(C(=O)N1CC34COCC3(CN(CC(F)(F)F)C4)C1)Cn1c-2c(C2CCCCC2)c2ccc(C(=O)NS(=O)(=O)N(C)C)cc21 (some centres undefined) | 7 | 
26 | 0.002 | 0.018 | COc1ccc2c(c1)[C@@H]1C[C@]1(C(=O)N1CC34CCC3(CN(C(=O)N3CCCC3)C4)C1)Cn1c-2c(C2CCCCC2)c2ccc(C(=O)NS(=O)(=O)N(C)C)cc21 (some centres undefined) | 10 | 
27 | 0.002 | 0.015 | COc1ccc2c(c1)[C@@H]1C[C@]1(C(=O)N1CC34CCC3(CN(C(=O)N3CCOCC3)C4)C1)Cn1c-2c(C2CCCCC2)c2ccc(C(=O)NS(=O)(=O)N(C)C)cc21 (some centres undefined) | 21 | Papp [9]: 259 nm/s; Papp [15]: 113 nm/s
28 | 0.002 | 0.008 | COc1ccc2c(c1)[C@@H]1C[C@]1(C(=O)N1CC34COCC3(CN(C(C)=O)C4)C1)Cn1c-2c(C2CCCCC2)c2ccc(C(=O)NS(=O)(=O)N(C)C)cc21 (some centres undefined) |  | Ratio [8]: 4; Cp (Plasma [11]): BLD; Cp (Plasma [12]): BLD; Drug uptake (Liver [13]): BLD; Drug uptake (Liver [14]): BLD; clearance [6]: 1.14 L/h/kg; CC50 at 72 h [10]: 24 µM
29 |  | 0.008 | COc1ccc2c(c1)[C@@H]1C[C@]1(C(=O)N1CC34CCC3(C1)CN(C1CC1)C4)Cn1c-2c(C2CCCCC2)c2ccc(C(=O)NS(=O)(=O)N(C)C)cc21 (some centres undefined) | 5 | 
30 | 0.004 | 0.007 | COc1ccc2c(c1)[C@@H]1C[C@]1(C(=O)N1CC34CCC3(C1)CN(S(=O)(=O)C(C)C)C4)Cn1c-2c(C2CCCCC2)c2ccc(C(=O)NS(=O)(=O)C(C)C)cc21 (some centres undefined) | 10 | 
31 | 0.004 | 0.004 | COc1ccc2c(c1)[C@@H]1C[C@]1(C(=O)N1CC34CCC3(CN(C)C4)C1)Cn1c-2c(C2CCCCC2)c2ccc(C(=O)NS(=O)(=O)C(C)C)cc21 (some centres undefined) | 21 | concentration at 6 h [2]: 0.026 µM; concentration at 6 h [3]: 0.006 µM; concentration at 6 h [4]: 0.138 µM; concentration at 6 h [5]: 0.146 µM; clearance [6]: 1.44 L/h/kg
32 | 0.003 | 0.002 | COc1ccc2c(c1)[C@@H]1C[C@]1(C(=O)N1CC34CCCC3(CN(C)C4)C1)Cn1c-2c(C2CCCCC2)c2ccc(C(=O)NS(=O)(=O)C(C)C)cc21 (some centres undefined) | 11 | concentration at 6 h [2]: 0.022 µM; concentration at 6 h [3]: 0.024 µM; concentration at 6 h [4]: 0.428 µM; concentration at 6 h [5]: 0.504 µM; clearance [6]: 1.86 L/h/kg
33 | 0.004 | 0.002 | COc1ccc2c(c1)[C@@H]1C[C@]1(C(=O)N1[C@@H]3CC[C@H]1CN(C)C3)Cn1c-2c(C2CCCCC2)c2ccc(C(=O)NS(=O)(=O)N(C)C)cc21 [BECLABUVIR] | 16 | 
34 | 0.005 | 0.001 | COc1ccc2c(c1)[C@@H]1C[C@]1(C(=O)N1CC34CN(C)CC3(CN(C)C4)C1)Cn1c-2c(C2CCCCC2)c2ccc(C(=O)NS(=O)(=O)C(C)C)cc21 (some centres undefined) | 43 | concentration at 6 h [2]: 0.014 µM; concentration at 6 h [3]: 0.004 µM; concentration at 6 h [4]: 0.066 µM; concentration at 6 h [5]: 0.068 µM; clearance [6]: 1.5 L/h/kg
